Patent EP0523085B1, “PEROXY ACID BLEACH PRECURSORS AND DETERGENT COMPOSITIONS CONTAINING THEM” (priority 1990, dated 1991)
Read-outs that look alike come from different tables or passages of the source.

How the values were obtained:
[1] = water solubility at 10°C (saturated solution in distilled water); type: physicochemical
Method: For the purposes of the present invention the solubility of a precursor in water is defined as the weight of the compound that can be dissolved in 100ml distilled water at 10°C, expressed on a percentage basis. Precursors in accordance with the invention have water solubilities of at least 25% by weight, more preferably at least 50% and most preferably at least 75%.
The water solubility of this material was determined by cooling 2.3g distilled water to 10°C and adding the precursor until no further material would dissolve. A slight excess was then added and the temperature raised to 25°C to give complete solution before recooling to 10°C, ensuring that crystallisation of the precursor took place from a saturated solution.

[2] = perhydrolysis with sodium perborate tetrahydrate at 10°C, iodometric titration; conditions: for rates of perhydrolysis, comparison of the two precursors: each predissolved (KDAES in distilled water, TAED in dimethyl formamide); for time for dissolution and perhydrolysis to be substantially complete: precursor added in solid form, KDAES assumed to be 82% active
Method: A jacketed 1 litre glass vessel fitted with a magnetic stirrer was used to carry out the perhydrolysis and the temperature of the solution was controlled at 10°C by means of a Thermomix (RTM) cooling unit which was used to circulate the cooled water through a jacket around the perhydrolysis vessel
The value obtained for the blank was subtracted from the values obtained at the various time intervals to give the figure from which the percentage perhydrolysis was calculated.

For `CC(=O)N(CCC[N+](C)(C)C)C(C)=O.[Br-]` [DTAPB, N,N-diacetyl trimethylammonio propylamine bromide], the solubility [1] was 75.6% and the “precursor perhydrolysed within 5 minutes” value ([2]; solid product, on the basis of a purity of 97.6%) was “approx. 92%”.
For `CC(=O)N(CCS(=O)(=O)[O-])C(C)=O.[K+]` [KDAES, potassium N,N-diacetylaminoethane sulphonate], the solubility ([1]; distilled water, 10°C) was 66.6%, the “amount of the precursor dissolved” value ([1]; in 2.3g distilled water at 10°C) was 4.71 g and the “rates of perhydrolysis, comparison of the two precursors” value [2] was “broadly similar”. The “time for dissolution and perhydrolysis to be substantially complete” value [2] was ≤ 5 min.
In the case of “tetra acetyl ethylene diamine [TAED, reference compound]”, the “rates of perhydrolysis, comparison of the two precursors” value [2] is reported as “broadly similar” and the “time for dissolution and perhydrolysis to be substantially complete” value [2] is reported as “at least 30 minutes”.
